Measurements from the NIST ThermoML archive (doi:10.1007/s10765-019-2537-x).
± gives the expanded uncertainty stated by the source.

Details: Liquid, transient hot wire

Cc1ccccc1 [toluene]
Details	thermal conductivity [W/m/K]
317.39 K, 5130 kPa	0.1266 ± 0.04
317.42 K, 1050 kPa	0.1251 ± 0.04
317.42 K, 10550 kPa	0.1277 ± 0.04
317.46 K, 15330 kPa	0.1292 ± 0.04
317.52 K, 20330 kPa	0.133 ± 0.04
336.3 K, 20300 kPa	0.1267 ± 0.04
336.32 K, 10150 kPa	0.1229 ± 0.04
336.34 K, 15140 kPa	0.1245 ± 0.04
336.39 K, 5020 kPa	0.1205 ± 0.04
336.42 K, 1030 kPa	0.1194 ± 0.04
356.27 K, 15170 kPa	0.1205 ± 0.04
356.27 K, 20040 kPa	0.1218 ± 0.04
356.36 K, 10440 kPa	0.1184 ± 0.04
356.41 K, 1160 kPa	0.1131 ± 0.04
356.43 K, 5170 kPa	0.1166 ± 0.04
376.88 K, 20030 kPa	0.1185 ± 0.04
376.95 K, 5200 kPa	0.1108 ± 0.04
376.95 K, 10160 kPa	0.1124 ± 0.04
376.95 K, 15270 kPa	0.1147 ± 0.04
377.07 K, 1080 kPa	0.1096 ± 0.04
395.96 K, 15140 kPa	0.1121 ± 0.04
396.23 K, 10180 kPa	0.1091 ± 0.04
396.26 K, 20010 kPa	0.1141 ± 0.04
396.28 K, 5150 kPa	0.1072 ± 0.04
396.32 K, 1030 kPa	0.1059 ± 0.04
416.29 K, 20250 kPa	0.1104 ± 0.04
416.33 K, 15150 kPa	0.1066 ± 0.04
416.68 K, 5290 kPa	0.1033 ± 0.04
416.72 K, 10280 kPa	0.1054 ± 0.04
416.75 K, 1040 kPa	0.1013 ± 0.04
436.23 K, 20100 kPa	0.1051 ± 0.04
436.34 K, 15130 kPa	0.1036 ± 0.04
436.37 K, 1020 kPa	0.0972 ± 0.04
436.48 K, 10230 kPa	0.1026 ± 0.04
436.52 K, 5170 kPa	0.0992 ± 0.04
456.02 K, 20030 kPa	0.1029 ± 0.04
456.04 K, 5400 kPa	0.0956 ± 0.04
456.22 K, 15290 kPa	0.1003 ± 0.04
456.24 K, 10330 kPa	0.099 ± 0.04
456.26 K, 1140 kPa	0.0928 ± 0.04
476.35 K, 10170 kPa	0.0941 ± 0.04
476.38 K, 20260 kPa	0.0994 ± 0.04
476.61 K, 1110 kPa	0.0901 ± 0.04
476.73 K, 5010 kPa	0.0914 ± 0.04
476.75 K, 15330 kPa	0.0965 ± 0.04
496.03 K, 20300 kPa	0.0962 ± 0.04
496.15 K, 2850 kPa	0.0875 ± 0.04
496.27 K, 15290 kPa	0.0945 ± 0.04
496.31 K, 10420 kPa	0.0928 ± 0.04
496.49 K, 5210 kPa	0.087 ± 0.04
516.06 K, 20190 kPa	0.094 ± 0.04
516.2 K, 15360 kPa	0.0916 ± 0.04
516.21 K, 10220 kPa	0.0906 ± 0.04
516.4 K, 5090 kPa	0.0862 ± 0.04
536.3 K, 10150 kPa	0.0873 ± 0.04
536.39 K, 15400 kPa	0.0897 ± 0.04
536.56 K, 20330 kPa	0.0921 ± 0.04
556.53 K, 15430 kPa	0.0908 ± 0.04
556.59 K, 20100 kPa	0.0927 ± 0.04
556.68 K, 10050 kPa	0.0869 ± 0.04
576.72 K, 20150 kPa	0.0885 ± 0.04
